In PMC6009888, “Design, synthesis, and pharmacological evaluation of 2-amino-5-nitrothiazole derived semicarbazones as dual inhibitors of monoamine oxidase and cholinesterase: effect of the size of aryl binding site” (Journal of Enzyme Inhibition and Medicinal Chemistry, 2017):
“Also recorded” adds a separate entry of the source. Read-outs that look alike come from different tables or passages of the source.

How the values were obtained:
[1] = In vitro DPPH radical scavenging assay; details: test sample 100 µg/ml, 100 µM methanolic DPPH, 30 min, 517 nm
Method: Antioxidant activity of the synthesised compounds (10 mg/ml) was evaluated using the radical scavenging capability against the stable free radical, 2,2′-diphenyl-1-picryl hydrazyl (DPPH·). The DPPH· scavenging capability was determined using UV based spectrophotometric assay. About 200 µl of the test sample solution (100 µg/ml) was added to 4 ml of 100 µM methanolic DPPH. […] Ascorbic acid (100 µg/ml) was used as reference. The percentage inhibition of DPPH activity was estimated using the formula: Percent (%) inhibition of DPPH activity = Acontrol-Asample/Acontrol×100 where Acontrol is the absorbance of DPPH· in methanol without an antioxidant and Asample is the absorbance of DPPH· in the presence of an antioxidant.

rat brain AChE = molecular target: T1, rat brain AChE (Rattus norvegicus, UniProt P37136); assay: biochemical; assay type: biochemical; details: for IC50: rat brain AChE, ACTI substrate, mean ± SEM, triplicate
T1 construct: the resulting clear supernatants obtained were used as enzyme sources; from tissue; host or cells: rat brain cortex homogenate, 10,000 g supernatant
T1 sequence (P37136 32-614): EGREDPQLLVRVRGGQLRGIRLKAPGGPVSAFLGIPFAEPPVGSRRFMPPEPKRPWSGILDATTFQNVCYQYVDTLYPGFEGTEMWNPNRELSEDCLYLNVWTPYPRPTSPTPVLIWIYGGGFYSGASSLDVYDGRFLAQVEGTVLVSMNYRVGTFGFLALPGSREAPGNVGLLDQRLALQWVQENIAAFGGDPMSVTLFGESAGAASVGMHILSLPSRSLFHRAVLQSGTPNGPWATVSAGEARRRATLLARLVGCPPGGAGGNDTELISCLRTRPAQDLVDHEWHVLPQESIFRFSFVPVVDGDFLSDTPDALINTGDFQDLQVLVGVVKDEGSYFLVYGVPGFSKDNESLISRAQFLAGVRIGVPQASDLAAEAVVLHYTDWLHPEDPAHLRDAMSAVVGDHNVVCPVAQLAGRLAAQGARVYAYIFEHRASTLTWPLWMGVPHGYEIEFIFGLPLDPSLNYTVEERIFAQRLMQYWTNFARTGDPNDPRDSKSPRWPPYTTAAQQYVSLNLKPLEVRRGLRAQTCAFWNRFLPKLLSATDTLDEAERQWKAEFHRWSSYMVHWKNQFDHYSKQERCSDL
Method: Rat brain was used as a source of AChE enzyme. Rats were separately decapitated, the brain cortices quickly removed, weighed and homogenised in cold 10 mM Tris-HCl buffer, pH 7.2, containing 160 mM sucrose. The homogenates were centrifuged at 10,000 g for 10 min at 4 °C, and the resulting clear supernatants obtained were used as enzyme sources that were divided into aliquots and stored at −20 °C.
About 30 µl of enzyme sample (AChE) was added to 60 µl of 20 mM sodium phosphate buffer (pH 7.4) and were incubated in the presence of 30 µl of 10 mM DTNB solution with different concentrations of the test compounds. The enzyme reaction was initiated by the addition of 30 µl of 0.8 mM ACTI. The mixtures were incubated for 15 min at 25 °C. […] Control experiments were carried out without inhibitor, and blanks were run without AChE enzyme. All the assays were performed in triplicate. IC50 values were determined using the GraphPad Prism 5.0 (San Diego, CA) and the results were expressed as mean ± SEM.
0, 15, 30 and 60 min at 25 °C in sodium phosphate buffer (20 mM, pH 7.4) and DTNB solution (10 mM). […] The reaction was further incubated at 25 °C for a further 15 min and the residual enzyme activities were measured and the bar graphs were constructed. All measurements were carried out in triplicate and are expressed as mean ± SEM.

mice = assay: Neurotoxicity screening (rotarod test); assay type: in vivo; details: for Neurotoxicity (animals that exhibit toxicity / animals tested): 30 mg/kg i.p.; for Neurotoxicity (verdict in words): 30 mg/kg, relative to phenytoin
Method: The neurotoxicity screening was undertaken according to the method followed by the National Institute of Health, using their reported procedures[55]^,[56]. Male albino mice (CF-1 strain or Swiss, 18–25 g) were used as experimental animals. The animals were housed in metabolic cages, and allowed free access to food and water. The test compounds were suspended in 0.5% methylcellulose/water mixture or in polyethylene glycol (PEG 200).
Minimal motor impairment was measured in mice by the rotarod test. The mice were trained to stay on an accelerating rotarod that rotates at six revolutions per minute. The rod diameter was 3.2 cm. Trained animals were given i.p. injection of the selected inhibitors at a dose of 30 mg/kg. Neurotoxicity was indicated by the inability of the animal to maintain equilibrium on the rod for at least 1 min in each of the three trials.

[2] = read-out: AChE In vitro IC50 (µM) ± SEM

Compound | % inhibition of DPPH activity [1] [%] | AChE: fold decrease in activity versus bromo substitution (compound 4) (rat brain AChE; halogen at carbimino terminal phenyl ring) [fold] | IC50 (rat brain AChE; [2]) [µM] | Neurotoxicity (animals that exhibit toxicity / animals tested) (mice; 0.5 h) | Neurotoxicity (animals that exhibit toxicity / animals tested) (mice; 1 h) | Neurotoxicity (animals that exhibit toxicity / animals tested) (mice; 2 h) | Neurotoxicity (animals that exhibit toxicity / animals tested) (mice; 4 h) | Neurotoxicity (verdict in words) (mice) | IC50 (rat brain AChE; AChE In vitro IC50 (µM) ± SEM) [µM] | AChE: fold increase in activity relative to compound 17 (rat brain AChE; diaryl analogues) [fold] | Mode of AChE inhibition (rat brain AChE; Lineweaver–Burk plots, ACTI) | Reversibility of AChE inhibition (rat brain AChE; time-dependent inhibition, pre-incubation 0, 15, 30, 60 min)
CC(=NNC(=O)Nc1ncc([N+](=O)[O-])s1)c1ccc(Cl)cc1 [Compound 5, 1-(1-(4-Chlorophenyl)ethylidene)-4-(5-nitrothiazol-2-yl)semicarbazide] | 51.83 | > 1000 | 356 ± 4.73 | 0/4 | 0/4 | 0/4 | 0/4 | – | – | – | – | –
CC(=NNC(=O)Nc1ncc([N+](=O)[O-])s1)c1ccc(Br)cc1 [Compound 4, 1-(1-(4-Bromophenyl)ethylidene)-4-(5-nitrothiazol-2-yl)semicarbazide] | 58.68 | – | 0.34 ± 0.007 | 0/4 | 0/4 | 0/4 | 0/4 | non-neurotoxic | – | – | – | –
O=C(NN=C(c1ccc(Cl)cc1)c1ccc(Cl)cc1)Nc1ncc([N+](=O)[O-])s1 [Compound 19, 1-(Bis(4-chlorophenyl)methylene)-4-(5-nitrothiazol-2-yl)semicarbazide] | 24.03 | – | – | 0/4 | 0/4 | 0/4 | 0/4 | – | 1.45 ± 0.047 | ~7.95 | – | –
O=C(NN=C1C(=O)Nc2ccc(Br)cc21)Nc1ncc([N+](=O)[O-])s1 [Compound 21, 1-(5-Bromo-2-oxoindolin-3-ylidene)-4–(5-nitrothiazol-2-yl)semicarbazide] | 65.65 | – | 0.264 | 1/4 | 0/4 | 0/4 | 0/4 | mildly neurotoxic; also recorded: slightly neurotoxic | – | – | mixed-type | reversible
